{
  "source": "the OligoGym collection",
  "note": "These antisense oligonucleotides have a phosphorothioate backbone; sugars and methylation of C are not fully specified. Note: test concentration or dose not given here.",
  "data": [
    {"biological_target": "PTPN6", "conditions": "ASO", "values": [
      {"sequence": "CGTGAGGCTGTCGAAGGTCT", "remaining target (mRNA or protein) (fraction of control)": 0.9},
      {"sequence": "GATGTCAATGTCACAGTCCA", "remaining target (mRNA or protein) (fraction of control)": 0.73},
      {"sequence": "GACAGCATCTCTCTGTAGGG", "remaining target (mRNA or protein) (fraction of control)": 0.78},
      {"sequence": "CCCTGACGGAGAGCGAGAAG", "remaining target (mRNA or protein) (fraction of control)": "≥ 1"},
      {"sequence": "TGAGTCTGTCCATCGCGAAA", "remaining target (mRNA or protein) (fraction of control)": 0.63},
      {"sequence": "CGCATTTGTTCCGGCCTTTC", "remaining target (mRNA or protein) (fraction of control)": 0.69},
      {"sequence": "GAGGACAGCACCGCTCACTT", "remaining target (mRNA or protein) (fraction of control)": 0.88},
      {"sequence": "CAGCATCTCTCTGTAGGGAG", "remaining target (mRNA or protein) (fraction of control)": 0.81},
      {"sequence": "CAAACTCTCAAACTCCTCCC", "remaining target (mRNA or protein) (fraction of control)": 0.88},
      {"sequence": "TGCCGGCGCTGCAGTGCACG", "remaining target (mRNA or protein) (fraction of control)": 0.85},
      {"sequence": "GGGACAGCATCTCTCTGTAG", "remaining target (mRNA or protein) (fraction of control)": "≥ 1"},
      {"sequence": "TCTCATCAGGGCCTAGCAGC", "remaining target (mRNA or protein) (fraction of control)": 0.74},
      {"sequence": "TCATGCTCCCCGCAGTTGGT", "remaining target (mRNA or protein) (fraction of control)": 0.4},
      {"sequence": "CGCTCACTTCCTCTTGAGGG", "remaining target (mRNA or protein) (fraction of control)": 0.69},
      {"sequence": "CGACTCCTGGCCCTTCTGCG", "remaining target (mRNA or protein) (fraction of control)": 0.61},
      {"sequence": "AGCAGGGTCTCTGCATCCAG", "remaining target (mRNA or protein) (fraction of control)": "≥ 1"},
      {"sequence": "GGCCTGGCTGGGCTATATAC", "remaining target (mRNA or protein) (fraction of control)": "≥ 1"},
      {"sequence": "GAAACCACCCACGGGACAGC", "remaining target (mRNA or protein) (fraction of control)": "≥ 1"},
      {"sequence": "TTCAGTGATCCCAGGGCTTT", "remaining target (mRNA or protein) (fraction of control)": 0.75},
      {"sequence": "CTCTTGAGGGAACCCTTGCT", "remaining target (mRNA or protein) (fraction of control)": 0.49},
      {"sequence": "ACGGGACAGCATCTCTCTGT", "remaining target (mRNA or protein) (fraction of control)": 0.65},
      {"sequence": "ACCCACGGGACAGCATCTCT", "remaining target (mRNA or protein) (fraction of control)": "≥ 1"},
      {"sequence": "TGGTGCCGTCGCGGTCCTGC", "remaining target (mRNA or protein) (fraction of control)": 0.29},
      {"sequence": "GGGAGAATGTTCTTGTAGCG", "remaining target (mRNA or protein) (fraction of control)": "≥ 1"},
      {"sequence": "TCAGAGTCGCAAACTTCTCC", "remaining target (mRNA or protein) (fraction of control)": "≥ 1"},
      {"sequence": "GCATCTCTCTGTAGGGAGGG", "remaining target (mRNA or protein) (fraction of control)": 0.96},
      {"sequence": "AGGCTCTCACGCACAAGAAA", "remaining target (mRNA or protein) (fraction of control)": 0.66},
      {"sequence": "AACCACCCACGGGACAGCAT", "remaining target (mRNA or protein) (fraction of control)": 0.47},
      {"sequence": "GATGAACTTGTACTGCGCCT", "remaining target (mRNA or protein) (fraction of control)": 0.84}
    ]},
    {"biological_target": "RHOB", "conditions": "ASO", "values": [
      {"sequence": "CTCTGTGCGGACATGCTC", "remaining target (mRNA or protein) (fraction of control)": 0.61},
      {"sequence": "GCACGTCTTGCCACACGC", "remaining target (mRNA or protein) (fraction of control)": "≥ 1"},
      {"sequence": "CCGTCCACCTCAATGTCG", "remaining target (mRNA or protein) (fraction of control)": "≥ 1"},
      {"sequence": "TCGGCCACATAGTTCTCG", "remaining target (mRNA or protein) (fraction of control)": 0.87},
      {"sequence": "CAGCAGTTGATGCAGCCG", "remaining target (mRNA or protein) (fraction of control)": 0.69},
      {"sequence": "TGTGCGGACATGCTCGTC", "remaining target (mRNA or protein) (fraction of control)": "≥ 1"},
      {"sequence": "GGGATGTTCTCCAGCGAG", "remaining target (mRNA or protein) (fraction of control)": 0.67},
      {"sequence": "TTACTGAACACGATCAGC", "remaining target (mRNA or protein) (fraction of control)": "≥ 1"},
      {"sequence": "CGGACATGCTCGTCGCTG", "remaining target (mRNA or protein) (fraction of control)": "≥ 1"},
      {"sequence": "ATGTTCTCCAGCGAGTCC", "remaining target (mRNA or protein) (fraction of control)": "≥ 1"},
      {"sequence": "CCACCACCAGCTTCTTGC", "remaining target (mRNA or protein) (fraction of control)": "≥ 1"},
      {"sequence": "CCTTACTGAACACGATCA", "remaining target (mRNA or protein) (fraction of control)": "≥ 1"},
      {"sequence": "CTCGTCCTTACTGAACAC", "remaining target (mRNA or protein) (fraction of control)": 0.99},
      {"sequence": "CTCGAAGACCTCGCGCAC", "remaining target (mRNA or protein) (fraction of control)": "≥ 1"},
      {"sequence": "CGAAGACCTCGCGCACGC", "remaining target (mRNA or protein) (fraction of control)": "≥ 1"},
      {"sequence": "ACGGGTTCCTGCTTCATG", "remaining target (mRNA or protein) (fraction of control)": "≥ 1"},
      {"sequence": "GTCCTTACTGAACACGAT", "remaining target (mRNA or protein) (fraction of control)": 0.95},
      {"sequence": "GTCTTGGCAGAGCACTCG", "remaining target (mRNA or protein) (fraction of control)": 0.8},
      {"sequence": "GACATGCTCGTCGCTGCG", "remaining target (mRNA or protein) (fraction of control)": "≥ 1"},
      {"sequence": "GTTCCTGCTTCATGCGGG", "remaining target (mRNA or protein) (fraction of control)": 0.73},
      {"sequence": "CATAGTTCTCGAAGACGG", "remaining target (mRNA or protein) (fraction of control)": "≥ 1"},
      {"sequence": "ACTGAACACGATCAGCAG", "remaining target (mRNA or protein) (fraction of control)": "≥ 1"},
      {"sequence": "CGGGCCAGCTCTGTGCGG", "remaining target (mRNA or protein) (fraction of control)": 0.62},
      {"sequence": "AGACCTCGCGCACGCCTT", "remaining target (mRNA or protein) (fraction of control)": 0.84},
      {"sequence": "CCAGCTCTGTGCGGACAT", "remaining target (mRNA or protein) (fraction of control)": 0.79},
      {"sequence": "GCCGTTCTGGGAGCCGTA", "remaining target (mRNA or protein) (fraction of control)": "≥ 1"},
      {"sequence": "TGCGGGCCAGCTCTGTGC", "remaining target (mRNA or protein) (fraction of control)": 0.69},
      {"sequence": "CGAGGTAGTCGTAGGCTT", "remaining target (mRNA or protein) (fraction of control)": 0.61},
      {"sequence": "GTTCTGGGAGCCGTAGCG", "remaining target (mRNA or protein) (fraction of control)": 0.64}
    ]},
    {"biological_target": "TERF1", "conditions": "ASO", "values": [
      {"sequence": "CCAAATCATCAGGGCTGATT", "remaining target (mRNA or protein) (fraction of control)": "≥ 1"},
      {"sequence": "TTACAAACACAATCAGTCTT", "remaining target (mRNA or protein) (fraction of control)": 0.77},
      {"sequence": "GGCTGACTCTTTGAAACAGG", "remaining target (mRNA or protein) (fraction of control)": 0.6},
      {"sequence": "GCTTTTACAAACACAATCAG", "remaining target (mRNA or protein) (fraction of control)": 0.73},
      {"sequence": "CACAGTCCCCAGTAGGTAAG", "remaining target (mRNA or protein) (fraction of control)": 0.56},
      {"sequence": "CTCGGAGCGGCCGTCGCGGA", "remaining target (mRNA or protein) (fraction of control)": 0.9},
      {"sequence": "GAGGTTCAGTGAGCTGAAAT", "remaining target (mRNA or protein) (fraction of control)": 0.81},
      {"sequence": "TTACTCTGTACATTTATCAT", "remaining target (mRNA or protein) (fraction of control)": "≥ 1"},
      {"sequence": "TTAACTCTGGTAGCACAAAC", "remaining target (mRNA or protein) (fraction of control)": 0.59},
      {"sequence": "AAGCTTTTACAAACACAATC", "remaining target (mRNA or protein) (fraction of control)": "≥ 1"},
      {"sequence": "ACTGGCAAGCTGTTAGACTG", "remaining target (mRNA or protein) (fraction of control)": 0.49},
      {"sequence": "GCAGGGTTCAACAAATTTAC", "remaining target (mRNA or protein) (fraction of control)": 0.75},
      {"sequence": "CAAACAAAATGCAGTGATCA", "remaining target (mRNA or protein) (fraction of control)": 0.84},
      {"sequence": "GAAACCCCGCCTCTACTAAA", "remaining target (mRNA or protein) (fraction of control)": 0.74},
      {"sequence": "ACAATCAGTCTTCGCTGTCT", "remaining target (mRNA or protein) (fraction of control)": 0.57},
      {"sequence": "TTTAGACCAGTTTCCCTCTC", "remaining target (mRNA or protein) (fraction of control)": 0.68},
      {"sequence": "TCAGTCTTCGCTGTCTGAGG", "remaining target (mRNA or protein) (fraction of control)": 0.46},
      {"sequence": "TCTGCTCCTCAGTAGGGTCG", "remaining target (mRNA or protein) (fraction of control)": 0.68},
      {"sequence": "CTTTCTGAGAGATTATCAT", "remaining target (mRNA or protein) (fraction of control)": 0.93},
      {"sequence": "TAGGCATCAGGTTATAAAGA", "remaining target (mRNA or protein) (fraction of control)": 0.73},
      {"sequence": "GCCATGTTAAATGGCTCGAT", "remaining target (mRNA or protein) (fraction of control)": 0.61},
      {"sequence": "TTTTACAAACACAATCAGTC", "remaining target (mRNA or protein) (fraction of control)": 0.77},
      {"sequence": "CTCGGCCACCAGGCCCGCGT", "remaining target (mRNA or protein) (fraction of control)": 0.82},
      {"sequence": "AGGTTTATCTTGAGAAGTTA", "remaining target (mRNA or protein) (fraction of control)": "≥ 1"},
      {"sequence": "AGTCTTCGCTGTCTGAGGAA", "remaining target (mRNA or protein) (fraction of control)": 0.59},
      {"sequence": "GGGTTACGTTACAGGGTTGA", "remaining target (mRNA or protein) (fraction of control)": "≥ 1"},
      {"sequence": "CTGAGGAAACATCCTCCGCC", "remaining target (mRNA or protein) (fraction of control)": 0.68},
      {"sequence": "ATATTAAATGAAGGTATCAG", "remaining target (mRNA or protein) (fraction of control)": "≥ 1"},
      {"sequence": "ACAAACACAATCAGTCTTCG", "remaining target (mRNA or protein) (fraction of control)": "≥ 1"},
      {"sequence": "ACACAATCAGTCTTCGCTGT", "remaining target (mRNA or protein) (fraction of control)": 0.64},
      {"sequence": "AAACACAATCAGTCTTCGCT", "remaining target (mRNA or protein) (fraction of control)": 0.93},
      {"sequence": "TTAAACACTGGAACAAAAGT", "remaining target (mRNA or protein) (fraction of control)": "≥ 1"},
      {"sequence": "TTTGTCCCATGGGTAATACT", "remaining target (mRNA or protein) (fraction of control)": 0.97},
      {"sequence": "TAAGAAAAGATTCTTGTGAG", "remaining target (mRNA or protein) (fraction of control)": 0.71},
      {"sequence": "GCCATTTTCCATACAAACAG", "remaining target (mRNA or protein) (fraction of control)": 0.81},
      {"sequence": "CATCCTCCGCCATGTTAAAT", "remaining target (mRNA or protein) (fraction of control)": 0.73},
      {"sequence": "GACATCAAGATGATCATAGT", "remaining target (mRNA or protein) (fraction of control)": "≥ 1"},
      {"sequence": "TTTAGGCAGGACGCAGTGGC", "remaining target (mRNA or protein) (fraction of control)": 0.47},
      {"sequence": "AATCAGTCTTCGCTGTCTGA", "remaining target (mRNA or protein) (fraction of control)": "≥ 1"},
      {"sequence": "GGCAGGTTTGTTAGCTGAGT", "remaining target (mRNA or protein) (fraction of control)": "≥ 1"}
    ]}
  ]
}
